Measured values taken from PMC5679103 (Journal of natural products, 2017).

How the values were obtained:
[1] = system: P. falciparum Dd2 strain; test: Antiplasmodial 72 h growth assay; type: cell-based, Plasmodium falciparum; settings: relative to trichospirolide B (2)
[2] = Stability on storage; type: physicochemical; settings: storage at −23 °C

With `C=C(C)C(=O)O[C@H]1C/C(C)=C\C(=O)/C=C(C)/C=C2/OC(=O)C(COC(C)=O)=C21` [Compound 1, 1(10)Z,3E,5E,7(12)Z-(8S)-13-acetoxy-8-methacryloyloxy-2-oxogermacra-1,3,5,7-tetraen-6,12-olide] the “Fold higher antiplasmodial potency than trichospirolide B” value [1] was 25 fold.
With `C=C(C)C(=O)O[C@H]1C/C(C)=C\C(=O)C[C@@]2(C)O[C@H]2[C@H]2OC(=O)C(COC(C)=O)=C12` [Compound 3, 1(10)Z,7(11)Z-(4R,5S,6S,8S)-13-acetoxy-4,5-epoxy-8-methacryloyloxy-2-oxogermacra-1,7-dien-6,12-olide] the “Fold higher antiplasmodial potency than trichospirolide B” value [1] was 3 fold.
With `C=C(C)C(=O)O[C@@H]1C/C(C)=C\[C@@]2(O)C=C(C)[C@H](O2)[C@H]2OC(=O)C(COC(C)=O)=C12` [Compound 4, 1(10)Z,3Z,7(11)Z-(2S,5S,6S,8R)-13-acetoxy-2,5-epoxy-2-hydroxy-8-O-methacryloyloxygermacra-1(10),3,7(11)-trien-6,12-olide] the Stability on storage [2] was “moderately unstable”.
